What all share (format): biochemical
Test [1] has as its target GuaB^Sa (Staphylococcus aureus, UniProt Q2FJM6). The test can be described thus: NADH production, NAD(P)H-Glo luminescence. An excerpt:
NADH production, NAD(P)H-Glo luminescence on GuaB^Sa

Test [2] deals with T1, GuaB^Ec (Escherichia coli, UniProt P0ADG7).
T1 sequence (P0ADG7 1-488): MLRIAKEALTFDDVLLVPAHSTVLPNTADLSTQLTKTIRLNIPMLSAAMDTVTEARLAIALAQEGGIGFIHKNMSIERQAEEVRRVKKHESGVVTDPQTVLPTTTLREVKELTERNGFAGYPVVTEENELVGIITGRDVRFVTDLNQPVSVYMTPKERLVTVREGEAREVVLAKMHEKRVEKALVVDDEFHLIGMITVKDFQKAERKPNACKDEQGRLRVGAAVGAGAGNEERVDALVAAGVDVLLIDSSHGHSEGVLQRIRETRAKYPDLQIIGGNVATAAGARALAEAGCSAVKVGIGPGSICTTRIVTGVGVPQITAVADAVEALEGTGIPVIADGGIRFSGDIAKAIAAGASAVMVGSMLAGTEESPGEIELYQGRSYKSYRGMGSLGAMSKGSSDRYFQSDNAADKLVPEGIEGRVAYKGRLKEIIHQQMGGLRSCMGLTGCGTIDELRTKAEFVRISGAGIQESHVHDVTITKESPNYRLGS
The test can be described thus: NADH production, absorbance at […] nm.

Test [3] has as its target T2, hIMPDH2 (Homo sapiens, UniProt P12268).
T2 construct: gene IMPDH2; not described in the main text
The test is described as follows: enzyme inhibition, method not given. An excerpt:
enzyme inhibition, method not described in main text on hIMPDH2

Test [4] deals with T3, GuaB^Ab (Acinetobacter baumannii, UniProt D0CF46).
T3 construct: recombinant A. baumannii GuaB
T3 sequence (D0CF46 1-488): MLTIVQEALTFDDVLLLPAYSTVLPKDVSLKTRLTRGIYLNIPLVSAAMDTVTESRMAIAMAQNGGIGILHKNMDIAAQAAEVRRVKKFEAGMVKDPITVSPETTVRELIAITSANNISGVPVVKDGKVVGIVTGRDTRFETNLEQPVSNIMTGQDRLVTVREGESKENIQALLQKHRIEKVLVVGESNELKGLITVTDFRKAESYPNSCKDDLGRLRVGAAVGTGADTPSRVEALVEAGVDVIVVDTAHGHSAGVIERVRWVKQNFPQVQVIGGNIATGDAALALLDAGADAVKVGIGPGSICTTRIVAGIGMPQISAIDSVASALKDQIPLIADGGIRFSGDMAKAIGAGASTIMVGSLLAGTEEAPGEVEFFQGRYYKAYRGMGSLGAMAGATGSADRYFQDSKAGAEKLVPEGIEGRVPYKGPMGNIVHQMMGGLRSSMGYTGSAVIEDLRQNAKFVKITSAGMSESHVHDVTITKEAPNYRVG
The test is described as follows: NADH production, NAD(P)H-Glo luminescence. An excerpt:
NADH production, NAD(P)H-Glo luminescence on GuaB^Ab

For five compounds, IC50 results are on record in article PMC11500612, “Differential effects of inosine monophosphate dehydrogenase (IMPDH/GuaB) inhibition in Acinetobacter baumannii and Escherichia coli” (Journal of Bacteriology, 2024).

As a reminder, the IC50 is the concentration that inhibits the measured activity by half. The low end stands for inhibition by little substance, the high end for a need for much substance.

T2 sequence (P12268 2-514): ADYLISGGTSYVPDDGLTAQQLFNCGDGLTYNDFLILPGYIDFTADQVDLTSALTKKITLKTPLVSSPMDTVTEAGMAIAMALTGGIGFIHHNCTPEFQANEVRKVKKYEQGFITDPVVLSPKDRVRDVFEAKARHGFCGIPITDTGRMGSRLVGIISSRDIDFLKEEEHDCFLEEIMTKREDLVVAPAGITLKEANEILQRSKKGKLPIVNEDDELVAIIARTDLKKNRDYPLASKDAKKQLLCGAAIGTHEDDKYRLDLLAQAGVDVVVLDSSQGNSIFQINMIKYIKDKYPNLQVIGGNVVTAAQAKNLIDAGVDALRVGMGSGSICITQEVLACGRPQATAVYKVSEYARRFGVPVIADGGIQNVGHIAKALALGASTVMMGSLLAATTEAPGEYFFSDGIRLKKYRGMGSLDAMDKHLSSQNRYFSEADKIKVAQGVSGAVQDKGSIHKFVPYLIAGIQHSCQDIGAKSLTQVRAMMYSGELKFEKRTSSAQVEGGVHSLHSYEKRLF
Chain of GuaB^Sa (Q2FJM6 whole entry): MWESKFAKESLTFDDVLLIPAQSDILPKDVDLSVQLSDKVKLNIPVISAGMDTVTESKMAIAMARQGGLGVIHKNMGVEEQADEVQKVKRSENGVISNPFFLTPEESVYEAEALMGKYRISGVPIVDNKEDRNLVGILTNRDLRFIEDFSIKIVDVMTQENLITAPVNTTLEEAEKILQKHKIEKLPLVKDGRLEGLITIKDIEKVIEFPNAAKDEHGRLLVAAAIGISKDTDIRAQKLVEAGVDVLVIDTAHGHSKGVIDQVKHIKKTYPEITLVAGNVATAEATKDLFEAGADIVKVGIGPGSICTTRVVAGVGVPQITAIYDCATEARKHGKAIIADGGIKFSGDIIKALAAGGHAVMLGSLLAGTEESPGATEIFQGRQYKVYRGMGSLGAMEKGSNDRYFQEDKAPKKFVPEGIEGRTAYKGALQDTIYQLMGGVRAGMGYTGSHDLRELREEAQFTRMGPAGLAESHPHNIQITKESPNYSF

Take `C[C@H](Nc1ccc(-n2cccn2)cc1)C(=O)Nc1ccc2sc(-c3ccncc3)nc2c1` [G5]: the concentration for half-maximal inhibition (IC50) in test [1] is 0.511 nM; in test [2], 569 nM; in test [3] it was greater than 50000 nM; in test [4], 0.394 nM.
As for `C[C@H](Nc1ccc2ncc(CO)cc2c1)C(=O)Nc1ccc(Cl)c(N(C)C)c1` [G2], the half-maximal inhibitory concentration (IC50) in test [1] is 3.5 nM; in test [2], 15.8 nM; in test [3], greater than 50000 nM; in test [4], 0.666 nM.
The matching figures for `C[C@H](Nc1ccc2ncc(CO)cc2c1)C(=O)Nc1ccc(Br)nc1` [G3]: 2.45 nM, 91 nM, greater than 50000 nM and 0.975 nM.
The matching figures for `C[C@H](Nc1ccc2ncc(CO)cc2c1)C(=O)Nc1ccc(Cl)c(N2CCOCC2)c1` [G6]: 0.801 nM, 5.9 nM, greater than 50000 nM and 0.564 nM.
The matching figures for `C[C@H](Nc1ccc(-n2cncn2)cc1)C(=O)Nc1ccc2sc(-c3cc[n+]([O-])cc3)nc2c1` [G4]: 0.62 nM, 903 nM, greater than 50000 nM and 0.617 nM.
